Results published in patent US11224565B2, “N-acyldipeptide derivatives and their uses” (NeoStrata Company, Inc., priority 2011, dated 2022).
Values joined by “and” are separate entries in the source; they are usually repeats but may differ in a detail not shown here. Identical values can stand only once. Peptide text beside a SMILES is read from it.

Assays:
Format in all cases: in vivo, human
insect bites = assay: Topical application to insect bite lesions (itch, erythema, inflammation)
Description: A subject, having intensive itch and erythema on their left arm from insect bites, topically applied 10% (w/w) N—Ac-L-Leu-Gly-NH2 cream as formulated in Example 3 on the involved lesions.
A subject had multiple lesions of insect bites (mosquitoes) over the face and arms with itch and inflammatory lesions of more than 1 cm in size. For testing purposes, the subject divided the lesions into three groups: the first group was treated with vehicle control, the second and third groups were treated with active compositions. The subject topically applied twice daily 0.5% (w/v) N—Ac-L-Val-L-Ala-NH2 solution in WEP442, pH 5.9 on the lesions of the second group, and 0.5% (w/v) N—Ac-L-Tyr-L-Tyr-NH2 solution in WEP442, pH 6.7 (Example 5) on the lesions of the third group. […] The lesions in the second and third groups also started to improve over the next few days. At the end of three days, while there was no discernible change in the lesions treated with vehicle control in the first group, the lesions in the second and third groups had 90-100% improvement with nearly complete disappearance of inflammatory lesions.
A subject had multiple lesions of chigger bites (grass mites) over the legs with intensive itch and red inflammatory lesions. The subject topically applied twice daily 0.5% (w/v) N—Ac-L-Val-L-Ala-NH2 solution in WEP442, pH 6.7 (Example 5) on the lesions. […] The lesions on the legs had 100% improvement as judged by clinical evaluation.
In another embodiment, the volunteer subject topically applied the test compositions containing N-acyldipeptide derivatives of the present invention on involved skin or lesions once or twice daily for several weeks or until the involved lesions completely cleared and clinically changed to normal skin. As a control study, the subject also topically applied a vehicle control composition on the involved skin or lesions twice daily for the same period.

stretch marks = assay: Topical treatment of stretch marks; conditions: twice daily, four weeks; 0.5% (w/w) N-Ac-L-Val-L-Ala-NH2 cream on one lesion, 0.5% (w/v) N-Ac-L-Tyr-L-Tyr-NH2 in WEP442 pH 6.7 on the other
Description: Stretch marks, known as striae, are visible linear scars caused by changes in collagen fibers and over stretching of the skin. Stretch marks are quite common in most adult women, and they readily develop at puberty or during pregnancy. They are also very common in obese people with sudden loss of weight. At present, there is no cure or effective treatment.
A subject, having lost a total of about 60 pounds from overweight over the last 10 years, developed multiple lesions of stretch marks over the body. The subject selected two separate lesions of stretch marks, and topically applied twice daily 0.5% (w/w) N—Ac-L-Val-L-Ala-NH2 cream (Example 2) on one lesion and 0.5% (w/v) N—Ac-L-Tyr-L-Tyr-NH2 solution in WEP442, pH 6.7 (Example 5) on the other lesion with untreated lesions of stretch marks as a control.
At the end of four weeks, the fine lines of stretch marks started to disappear, and deeper lines became less deep. The treated lesions had approximately 25% improvement as judged by clinical evaluation.

[1] = test system: pain and inflammation of joints and muscles; assay: Topical administration for pain and inflammation of sprained leg, shoulder or muscles
Description: A typical example of a topical administration for systemic therapeutic effects was carried out as follows. A subject, having sprained their left leg near the knee with inflammation for several weeks had severe pain each time walking. Massage therapy and conventional treatments provided only a temporary relief. The subject topically applied and rubbed 0.4% (w/v) N—Ac-L-Val-L-Ala-NH2 in WEP442, pH 5.8 as prepared in Example 5 onto the left thigh and calf sites of skin for 30 seconds at night.
The subject topically applied twice daily 0.5% (w/v) N—Ac-L-Tyr-L-Tyr-NH2 in WEP442 solution, pH 6.7 as prepared in Example 5. […] At the end of 5 days, the right shoulder had 90% improvement as determined by clinical evaluation.
The subject topically applied twice daily 0.5% (w/v) N—Ac-L-Val-L-Ala-NH2 in WEP442 solution, pH 6.7 as prepared in Example 5 to the affected area of skin. The pain diminished with less inflammation over the next day.
In yet another embodiment, the volunteer subject topically applied once or twice daily the test compositions containing N-acyldipeptide derivatives of the present invention on the skin site above arthritic joints or painful muscles to provide therapeutic effects for the systemic disorders via topical administration.

sweating of underarm = assay: Topical application to underarm, perspiration; conditions: 0.5% (w/v) in WEP442 pH 6.7 after shower
Description: A subject, routinely took a shower every morning, then topically applied a conventional antiperspirant product on the underarm skin to prevent perspiration. To test the efficacy of the N-acyldipeptide derivative of the present invention, the subject after the shower, topically applied 0.5% (w/v) N—Ac-L-Tyr-L-Tyr-NH2 in WEP442, pH 6.7 (Example 5) on the left underarm and a control vehicle WEP442 on the right underarm. After two hours, there was profuse sweating in the right underarm as evidenced by the wet shirt in the armpit area. In contrast, there was no sweating in the left underarm as shown by the dry shirt in the armpit area. The left underarm was dry for the next 6-8 hours.

forearm skin = assay: Skin thickness of forearm by micrometer calipers after topical application; conditions: for appearance of treated left forearm at end of treatment: 1-3% (w/v) in WEP442 topically twice daily for 1-6 weeks as in the example, vehicle forearm still loose, thin and wrinkled; for increase in skin thickness of treated left forearm: 3% (w/v) in WEP442 topically twice daily, vehicle forearm no change
Description: In one of the studies related to skin changes associated with aging, skin thickness was measured by micrometer calipers as follows. The skin was grasped with a 2×6 cm metal hinge; the internal faces of which were coated with emery cloth to prevent slippage, and manually squeezed to threshold subject discomfort. Combined thickness of two whole-skin layers including thickness of the two hinge leaves was measured with micrometer calipers. Thickness of the two hinge leaves was subtracted to determine the actual thickness of two whole-skin layers. Triplicate measurements on treated sites were done and an average number was used for calculation of the skin thickness. In other studies, test sites of skin 17 mm in diameter were used, the circular sites were marked with permanent ink. Intervening control sites were also 17 mm in diameter. Thickness of skin of all sites was measured directly by means of an electronic digital caliper. In this instance the jaws of the caliper were opened to 17 mm, applied with pressure to the skin sites and then closed to firm tightness. Thickness of skin was then read off the screen of the calipers. Measurements of all sites were made in triplicates.

[2] = mosquito bites face and arms, twice daily, 0.5% (w/v) N-Ac-L-Val-L-Ala-NH2 in WEP442 pH 5.9 (second group), 0.5% (w/v) N-Ac-L-Tyr-L-Tyr-NH2 in WEP442 pH 6.7 (third group)

| SMILES | itch after topical application (insect bites; [2]) | improvement of treated stretch mark lesions as judged by clinical evaluation (stretch marks) | pain of sprained right shoulder ([1]; 0.5% (w/v) in WEP442 pH 6.7 topically twice daily, after three days) | improvement of right shoulder by clinical evaluation ([1]; 0.5% (w/v) in WEP442 pH 6.7 topically twice daily, end of 5 days) [%] | time the treated underarm stayed dry (sweating of underarm) [h] | sweating of treated left underarm (sweating of underarm; after two hours, vehicle underarm profuse sweating) | appearance of treated left forearm at end of treatment (forearm skin) | increase in skin thickness of treated left forearm (forearm skin; after 2 weeks) | increase in skin thickness of treated left forearm (forearm skin; after 3 weeks) [%] | increase in skin thickness of treated left forearm (forearm skin; after 4 weeks) | increase in skin thickness of treated left forearm (forearm skin; after 6 weeks) [%] | increase in skin thickness of treated left forearm (forearm skin; after one week) [%] | itch after topical application (insect bites; 0.5% (w/v) in WEP442 pH 6.7 twice daily, chigger bites on legs) | improvement of lesions as judged by clinical evaluation (insect bites; 0.5% (w/v) in WEP442 pH 6.7 twice daily, chigger bites on legs, end of five days) [%] | pain on walking ([1]; 0.4% (w/v) in WEP442 pH 5.8 rubbed onto left thigh and calf at night, sprained leg, next morning) | improvement of left leg by clinical evaluation ([1]; 0.4% (w/v) in WEP442 pH 5.8 rubbed onto left thigh and calf for 30 seconds at night, sprained leg, next morning) | muscle pain and inflammation in both arms ([1]; 0.5% (w/v) in WEP442 pH 6.7 topically twice daily, end of five days) | improvement of arms by clinical evaluation ([1]; 0.5% (w/v) in WEP442 pH 6.7 topically twice daily, muscle pain, end of five days) |
| --- | --- | --- | --- | --- | --- | --- | --- | --- | --- | --- | --- | --- | --- | --- | --- | --- | --- | --- |
| CC(=O)N[C@@H](Cc1ccc(O)cc1)C(=O)N[C@@H](Cc1ccc(O)cc1)C(N)=O [N-Ac-L-Tyr-L-Tyr-NH2] (Ac-Tyr-Tyr-NH2) | stopped completely within a few minutes | approximately 25% | disappeared completely | 90 | 6 to 8 | no sweating | more firm, smooth, plump, and less wrinkled when lifted | 13% and 19% | 14 | 17% and 21% | – | – | – | – | – | – | – | – |
| CC(=O)NNC(=O)[C@H](Cc1ccc(O)cc1)NC(=O)[C@H](Cc1ccc(O)cc1)NC(C)=O [N-Ac-L-Tyr-L-Tyr-NHNHAc] | – | – | – | – | – | – | more firm, smooth, plump, and less wrinkled when lifted | 7% | 32 | – | 23 | 21 | – | – | – | – | – | – |
| CC(=O)N[C@H](C(=O)N[C@@H](C)C(N)=O)C(C)C [N-Ac-L-Val-L-Ala-NH2] (Ac-Val-Ala-NH2) | stopped completely within a few minutes | approximately 25% | – | – | – | – | – | – | – | – | – | – | stopped within a few minutes | 100 | could walk slowly without feeling any pain | approximately 75% | disappeared completely | 95%-100% |
